Results on 37 compounds are retold here after PubChem BioAssay AID434972 (The Scripps Research Institute Molecular Screening Center, 2010).

The source made the active and inactive calls.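 The calls were made as follows: active = inhibition of WEE1 degradation of at least 19%, seen as raised luminescence; inactive = the rest.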

Chain of Wee1-like protein kinase (Homo sapiens) (P30291 whole entry K328M): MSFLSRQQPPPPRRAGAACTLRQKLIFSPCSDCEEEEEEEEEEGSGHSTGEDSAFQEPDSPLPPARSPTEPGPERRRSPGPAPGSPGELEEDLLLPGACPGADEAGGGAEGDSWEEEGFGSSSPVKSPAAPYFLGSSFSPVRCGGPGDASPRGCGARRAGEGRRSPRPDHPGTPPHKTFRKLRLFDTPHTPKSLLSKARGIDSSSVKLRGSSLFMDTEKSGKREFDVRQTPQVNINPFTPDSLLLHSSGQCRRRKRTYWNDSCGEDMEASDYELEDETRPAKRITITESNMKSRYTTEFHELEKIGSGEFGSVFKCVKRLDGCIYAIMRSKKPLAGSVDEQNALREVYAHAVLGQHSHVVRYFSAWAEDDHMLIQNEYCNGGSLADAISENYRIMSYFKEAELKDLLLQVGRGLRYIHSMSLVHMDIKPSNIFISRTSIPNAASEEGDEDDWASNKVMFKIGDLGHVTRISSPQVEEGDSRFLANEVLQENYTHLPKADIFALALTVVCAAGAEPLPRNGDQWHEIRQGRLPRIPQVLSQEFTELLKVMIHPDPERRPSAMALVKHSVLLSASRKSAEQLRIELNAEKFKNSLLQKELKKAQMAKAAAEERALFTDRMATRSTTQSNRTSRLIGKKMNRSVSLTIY

The test addresses Wee1-like protein kinase (Homo sapiens) (UniProt P30291). Briefly: Wee1 degradation inhibition by kinase inhibitors, SAR follow-up, cell-based, HeLa, WEE1K328M-luciferase, luminescence, powder samples (AID 434972). The note with it: HeLa WEE1K328M-luciferase stability, at 0.25 µM, hits give high values.
Consider `c1ccc2[nH]c(CNc3nc(N4CCCCC4)nc4c3ncn4-c3ccsc3)nc2c1`, for which the inhibition of WEE1 degradation was 10.5% (inactive). For `CC(C)n1cnc2c(NCc3nc4c([N+](=O)[O-])cccc4[nH]3)nc(N3CCOCC3)nc21` the value was 111%. For `Clc1ccc2nc(CNc3nc(N4CCOCC4)nc4c3ncn4-c3ccsc3)[nH]c2c1` the value was 101%.

As for `Nc1ccc2nc(CNc3nc(N4CCOCC4)nc4c3ncn4-c3ccsc3)[nH]c2c1`, the inhibition of WEE1 degradation is 8.3% (inactive). For `FC(F)(F)c1cccc2[nH]c(CNc3nc(N4CCOCC4)nc4c3ncn4-c3ccsc3)nc12`, the inhibition of WEE1 degradation was 10.8% (inactive). Take `CC(C)n1cnc2c(NCc3nc4ccccc4[nH]3)nc(N3CCOCC3)nc21`: the inhibition of WEE1 degradation was 4.1% (inactive). The figure for `C=CCN(CC=C)c1nc(NCc2nc3ccccc3[nH]2)c2ncn(-c3ccsc3)c2n1` is 8.2% (inactive); for `CCOC(=O)c1cccc2[nH]c(CNc3nc(N4CCOCC4)nc4c3ncn4C(C)C)nc12` it is 17% (inactive); for `N#Cc1ccc2nc(CNc3nc(N4CCOCC4)nc4c3ncn4-c3ccsc3)[nH]c2c1` it is 85.9%.

As to `CC(C)n1cnc2c(NCc3nc4ccccc4[nH]3)nc(Nc3ccncn3)nc21`, the inhibition of WEE1 degradation was 4% (inactive).

As for `c1ccc(N2CCN(c3nc(NCc4nc5ccccc5[nH]4)c4ncn(-c5ccsc5)c4n3)CC2)nc1`, the inhibition of WEE1 degradation was 4% (inactive). For `COc1ccc2nc(CNc3nc(N4CCOCC4)nc4c3ncn4-c3ccsc3)[nH]c2c1` the value was 79.5%; for `c1ccc2[nH]c(CNc3nc(Nc4cnccn4)nc4c3ncn4-c3ccsc3)nc2c1`, 2.9% (inactive); for `Nc1cccc2[nH]c(CNc3nc(N4CCOCC4)nc4c3ncn4-c3ccsc3)nc12`, 15.6% (inactive). The figure for `FC(F)(F)c1ccc2nc(CNc3nc(N4CCOCC4)nc4c3ncn4-c3ccsc3)[nH]c2c1` is 46.3%. For `c1ccc2[nH]c(CNc3nc(N4CCCC4)nc4c3ncn4-c3ccsc3)nc2c1`, the inhibition of WEE1 degradation was 9.9% (inactive). `CC(C)n1cnc2c(NCc3nc4ccccc4[nH]3)nc(Nc3cnccn3)nc21`: the inhibition of WEE1 degradation was 5.3% (inactive). The figure for `FC(F)(F)c1cc(Br)c2nc(CNc3nc(N4CCOCC4)nc4c3ncn4-c3ccsc3)[nH]c2c1` is 13.4% (inactive); for `O=[N+]([O-])c1ccc2nc(CNc3nc(N4CCOCC4)nc4c3ncn4-c3ccsc3)[nH]c2c1` it is 18.7% (inactive). For `CCOC(=O)c1cccc2[nH]c(CNc3nc(N4CCOCC4)nc4c3ncn4-c3ccsc3)nc12` the value was 97.3%; for `C[C@@H](Nc1nc(NCc2nc3ccccc3[nH]2)c2ncn(-c3ccsc3)c2n1)c1ccccc1`, 9.2% (inactive); for `CC(C)n1cnc2c(NCc3nc4ccccc4[nH]3)nc(Nc3cccnc3)nc21`, 3.4% (inactive). The figure for `Cc1ccnc(NC(=O)CCCOc2cc(=O)n(C)c3ccccc23)c1` is 6.4% (inactive). As for `NCCN1CCN(c2nc(NCc3nc4ccccc4[nH]3)c3ncn(-c4ccsc4)c3n2)CC1`, the inhibition of WEE1 degradation was 8.6% (inactive). For `c1ccc2[nH]c(CNc3nc(NCCN4CCOCC4)nc4c3ncn4-c3ccsc3)nc2c1` the value was 8.1% (inactive); for `O=[N+]([O-])c1cccc2[nH]c(CNc3nc(N4CCOCC4)nc4c3ncn4-c3ccsc3)nc12`, 100%; for `c1cnc2ccc3[nH]c(CNc4nc(N5CCOCC5)nc5c4ncn5-c4ccsc4)nc3c2c1`, 22%. For `Fc1ccc2nc(CNc3nc(N4CCOCC4)nc4c3ncn4-c3ccsc3)[nH]c2c1` the value was 81.4%.

On to `c1ccc2[nH]c(CNc3nc(N4CCOCC4)nc4c3ncn4-c3ccsc3)nc2c1`, for which the inhibition of WEE1 degradation was 56.8%. For `c1ccc(-n2cnc3c(NCc4nc5ccccc5[nH]4)nc(N4CCOCC4)nc32)cc1` the value was 4% (inactive); for `CN1CCN(c2nc(NCc3nc4ccccc4[nH]3)c3ncn(-c4ccsc4)c3n2)CC1`, 14.1% (inactive). The figure for `c1ccc2[nH]c(CNc3nc(N4CCNCC4)nc4c3ncn4-c3ccsc3)nc2c1` is 14.5% (inactive). For `c1ccc2cc3[nH]c(CNc4nc(N5CCOCC5)nc5c4ncn5-c4ccsc4)nc3cc2c1`, the inhibition of WEE1 degradation was 48.3%.

Take `c1ccc2c(c1)CCN2c1nc(NCc2nc3ccccc3[nH]2)c2ncn(-c3ccsc3)c2n1`: the inhibition of WEE1 degradation was 7.9% (inactive). For `c1ccc2[nH]c(CNc3nc(N4CCSCC4)nc4c3ncn4-c3ccsc3)nc2c1` the value was 11.4% (inactive); for `OCCN1CCN(c2nc(NCc3nc4ccccc4[nH]3)c3ncn(-c4ccsc4)c3n2)CC1`, 10% (inactive); for `O=C(NC1CC1)c1ccc(-c2nc(NCc3nc4ccccc4[nH]3)c3ncn(-c4ccsc4)c3n2)cc1`, 3.6% (inactive).
